# From ChEMBL document CHEMBL1201862, “PubChem BioAssay data set” (2004)
#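 Assay format: 96-well plates, 48-hour exposure. GI50 is the concentration that inhibits growth by half.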 Activity calls are given as the source filed them. Rule as the data show it: active = GI50 up to about 1.1 µM and inactive = higher.
# Columns and labels:
# Assay in all cases: growth of human tumour cells (NCI), 48 h
# [1] = system: LOX IMVI
# [2] = system: Malme-3M
# [3] = system: EKVX
# [4] = system: A498
# [5] = system: UO-31
# [6] = system: DMS-273
# [7] = system: SN12C
# [8] = system: NCI-H522
# [9] = system: SNB-75
# [10] = system: CCRF-CEM
# [11] = system: 786-0
# [12] = system: HCT-15
# [13] = system: OVCAR-4
# [14] = system: U-251
# [15] = system: SW-620
# [16] = system: M19-MEL
# [17] = system: HOP-92
# [18] = system: HCT-116
# [19] = system: SF-268
# [20] = system: SNB-19
# [21] = system: LXFL 529
# [22] = system: KM-20L2
# [23] = system: NCI-H23
# [24] = system: SNB-78
# [25] = system: DLD-1
# [26] = system: RPMI-8226
# [27] = system: HOP-18
# [28] = system: UACC-62
# [29] = system: TK-10
# [30] = system: HOP-62
# [31] = system: HT-29
# [32] = system: NCI-H460
# [33] = system: SK-MEL-28
# [34] = system: KM12
# [35] = system: RXF 393
# [36] = system: UACC-257
# [37] = system: HL-60
# [38] = system: M14
# [39] = system: SF-295
# [40] = system: OVCAR-5
# [41] = system: HCC 2998
# [42] = system: OVCAR-8
# [43] = system: NCI/ADR-RES
# [44] = system: A549
# [45] = system: SF-539
# [46] = system: XF498
# [47] = system: OVCAR-3
# [48] = system: COLO 205
# [49] = system: MCF7
# [50] = system: DMS-114
# [51] = system: SK-MEL-5
# [52] = system: ACHN
# [53] = system: K562
# [54] = system: IGROV-1
# [55] = system: CAKI-1
# [56] = system: SK-MEL-2
# [57] = system: NCI-H226
# [58] = system: SK-OV-3
compound,measurement,setting,value
CN(C)CCNC(=O)c1cc([N+](=O)[O-])cc2ccc(-c3ccccc3)nc12,GI50,[1],7.03 µM (inactive)
same,GI50,[2],6.59 µM (inactive)
same,GI50,[3],24.7 µM (inactive)
same,GI50,[4],3.78 µM (inactive)
same,GI50,[5],2.9 µM (inactive)
same,GI50,[6],5.62 µM (inactive)
same,GI50,[7],10.4 µM (inactive)
same,GI50,[8],3.85 µM (inactive)
same,GI50,[9],5.64 µM (inactive)
same,GI50,[10],3.1 µM (inactive)
same,GI50,[11],16.4 µM (inactive)
same,GI50,[12],7.26 µM
same,GI50,[13],5.55 µM (inactive)
same,GI50,[14],10.2 µM (inactive)
same,GI50,[15],5.22 µM (inactive)
same,GI50,[16],5.93 µM (inactive)
same,GI50,[17],10.5 µM (inactive)
same,GI50,[18],3.23 µM (inactive)
same,GI50,[19],7.91 µM (inactive)
same,GI50,[20],8.02 µM (inactive)
same,GI50,[21],18.3 µM (inactive)
same,GI50,[22],6.46 µM (inactive)
same,GI50,[23],7.67 µM (inactive)
same,GI50,[24],17.8 µM (inactive)
same,GI50,[25],9.2 µM (inactive)
same,GI50,[26],17.7 µM (inactive)
same,GI50,[27],4.97 µM (inactive)
same,GI50,[28],4.62 µM (inactive)
same,GI50,[29],22.2 µM (inactive)
same,GI50,[30],12.9 µM (inactive)
same,GI50,[31],3.85 µM (inactive)
same,GI50,[32],3.8 µM (inactive)
same,GI50,[33],9.33 µM (inactive)
same,GI50,[34],7.94 µM (inactive)
same,GI50,[35],6.04 µM (inactive)
same,GI50,[36],5.75 µM (inactive)
same,GI50,[37],7.29 µM (inactive)
same,GI50,[38],33.7 µM (inactive)
same,GI50,[39],8.79 µM (inactive)
same,GI50,[40],6.4 µM (inactive)
same,GI50,[41],7.36 µM (inactive)
same,GI50,[42],8.11 µM (inactive)
same,GI50,[43],2.17 µM (inactive)
same,GI50,[44],7.64 µM (inactive)
same,GI50,[45],7.66 µM (inactive)
same,GI50,[46],7.19 µM (inactive)
same,GI50,[47],10.9 µM (inactive)
same,GI50,[48],6.05 µM (inactive)
same,GI50,[49],2.71 µM (inactive)
same,GI50,[50],7.16 µM (inactive)
same,GI50,[51],4.7 µM (inactive)
same,GI50,[52],10.5 µM (inactive)
same,GI50,[53],17.1 µM (inactive)
same,GI50,[54],6.92 µM (inactive)
same,GI50,[55],10 µM (inactive)
same,GI50,[56],19.3 µM (inactive)
same,GI50,[57],3.27 µM (inactive)
same,GI50,[58],9.02 µM (inactive)
